Columns and labels:
[1] = test system: intraocular pressure; test: Intraocular pressure reducing action (Test Example 4); assay type: in vivo, Japanese white rabbit; details: rabbit, 50 μl of aqueous solution dropped to the left eye
Protocol: A Japanese white rabbit having a body weight of about 2 kg was placed in a positioner and naturalized for one week before the experiment. An ophthalmologic local anesthesant (Benoxil) was administered to the left eye, and then intraocular pressure was measured by using a tonometer (Classic 30, Solan). The initial value of the intraocular pressure was measured, then 50 μl of an aqueous solution of a test compound was dropped to the left eye at various concentrations, and the intraocular pressure was measured with passage of time.

[2] = test system: ovalbumin-induced constriction of respiratory tract; test: Respiratory tract constriction suppressing action, intravenous administration (Test Example 3); assay type: in vivo, Hartley guinea pigs; details: ovalbumin-immunized guinea pigs, administered from cannula in hind leg vein, measured for 15 minutes
Protocol: Four-week old Hartley guinea pigs (male) were immunized by intraperitoneal administration of ovalbumin (Sigma, Grade V) in amounts of 1 mg for each animal on the day on which the experiment was started, 3 mg for each animal after 2 days, and 10 mg for each animal after 4 days. Twelve to fourteen days after the final immunization, the ovalbumin-immunized guinea pigs were anesthetized by intraperitoneal administration of about 40 mg/kg of pentobarbital (Somnopentyl), and the tracheas were taken out. Subsequently, a cannula (SP-110, Natsume) was inserted into each trachea, and one end of the cannula was connected to an artificial respirator (Model-b83, Harvard). The aeration conditions were set at 6 ml per kilogram and 60 times per 1 minute. Further, a cannula for medicament administration (JMS wing needle 23G 3/4) was inserted into a hind leg vein. Myoblock (Organon Technica) was administered in an amount of 0.5 mg/kg from the cannula inserted into the hind leg vein to stop the spontaneous breathing, and after 2 or 3 minutes, 0.3 mg/kg of ovalbumin was administered to induce constriction of respiratory tract. The increase of airway resistance value 2 minutes after the induction (measurement apparatuses: pressure transducer TR-603T, respiratory amplifier AR-601G, and recorder RTA-3100, Nihon Kohden Corp.) was confirmed to be above 80 cm H2O or higher, and then, a solution of a test medicament was administered from the cannula inserted into the hind leg vein, and the airway resistance value was continuously measured for 15 minutes after the administration to determine the effect.

[3] = test system: ovalbumin-induced constriction of respiratory tract; test: Respiratory tract constriction suppressing action, administration by inhalation (Test Example 3); assay type: in vivo, Hartley guinea pigs; details: ovalbumin-immunized guinea pigs, 2 ml solution by inhalation over 5 minutes
Protocol: Four-week old Hartley guinea pigs (male) were immunized by intraperitoneal administration of ovalbumin (Sigma, Grade V) in amounts of 1 mg for each animal on the day on which the experiment was started, 3 mg for each animal after 2 days, and 10 mg for each animal after 4 days. Further, the respiratory tract constriction suppression action of the test compounds was also evaluated by inhalation. Twelve to fourteen days after the final sensitization, 10 mg/kg of pyrilamine (Sigma), 5 mg/kg of indomethacin (Wako), or 0.1 mg/kg of propranolol (Sigma) was intraperitoneally administered. Then, 30 minutes after the administration, a 0.1% ovalbumin aqueous solution was inhaled by using a pressurization type nebulizer (PARI-IS2) to induce constriction of the respiratory tract. Ten minutes after the induction, 2 ml of a solution of a test compound prepared at various concentrations was filled in the aforementioned nebulizer, and administered by inhalation over 5 minutes. After the administration of pyrilamine and other drugs, airway resistance value was continuously measured to determine effectiveness.

[4] = test system: phosphorylated myosin regulatory light chain in neutrophils; test: Action on amount of phosphorylated myosin regulatory light chain in the cells (Test Example 1); assay type: cell-based; details: Neutrophil, 5 min; human neutrophils, reaction at 25° C. for 5 minutes; read-out: concentration at which the phosphorylation of myosin regulatory light chain is inhibited (IC50)
Protocol: A volume of 50 to 100 ml of peripheral blood collected from healthy volunteers was centrifuged by using Mono-Poly separator solution (Dainippon Pharmaceutical) to prepare a neutrophil containing fraction. The neutrophils were washed with PBS(−) and resuspended in Hanks' Balanced Salt Solution (HBSS+, Gibco) to prepare a cell suspension (8×10^6/ml). The cell suspension was diluted to 5×10^6/ml, introduced into Eppendorf tubes in a volume of 0.4 ml each, then 0.1 ml each of solutions of a test compound at various concentrations were added to the suspension and allowed to react at 25° C. for 5 minutes. After the reaction, 0.1 ml of trichloroacetic acid solution was added to each reaction, the reaction mixture was gently shaken and centrifuged at 12,000 rpm (4° C., 5 minutes), and the supernatant was removed. Subsequently, 3 μl of 1 M Tris solution was added to the residue, the mixture was further mixed with 50 μl of extraction buffer (8 M urea, 0.02% 2-mercaptoethanol, 0.002% bromophenol blue) and left stand at room temperature for 1 hour. Then, the reaction mixture was loaded on a spin column (0.45 μm, Millipore) to remove the insoluble solids and a sample buffer for SDS polyacrylamide gel electrophoresis (25 mM, Tris-HCl pH 6.8, 2.5% 2-mercaptoethanol, 2% sodium dodecylsulfate, 5% sucrose, 0.002% bromophenol blue as final concentrations) was added, and 10 μl of each sample was subjected to electrophoresis.
The gel after the electrophoresis was blotted on a nitrocellulose membrane (BioRad), blocked with 5% skim milk, and reacted successively with antibodies pLC1 (Sakurada K. et al, Am. J. Physiol., 274, C1563–C1572 (1998)), which specifically recognize the phosphorylated myosin regulatory light chain, and donkey anti-mouse IgG (Chemicon) conjugated with horseradish peroxidase. The band of the phosphorylated myosin regulatory light chain was detected on a film by using ECL Plus Kit (Amersham Pharmacia Biotech). This band was subjected to quantification using a densitometer. By using this value, the inhibitory ratio (%) for phosphorylation of the myosin regulatory light chain was calculated by using the following equation. Phosphorylation inhibition ratio (%)=1−(Band intensity of phosphorylated myosin regulatory light chain with addition of the test compound/Band intensity of phosphorylated myosin regulatory light chain without addition of the test compound)×100
Further, the phosphorylation inhibition ratio was calculated with changing the concentrations of the test compound, and a compound concentration providing an inhibition ratio of 50% was obtained as IC50.

Structure (SMILES) | intraocular pressure reducing action [1] | also measured
Cl.c1cc2c3c(cncc3c1)CCN2C1CCNC1 (stereo not drawn) [Example 1] | significant intraocular pressure reducing action | –
Cl.c1cc2c3c(cncc3c1)CCN2C1CCNCC1 [Example 11] | significant intraocular pressure reducing action | improvement of constriction of respiratory tract (airway resistance value) [2]: significantly improved the constriction of respiratory tract; improvement of constriction of respiratory tract (airway resistance value) [3]: significantly improved the constriction of respiratory tract
Cl.OCCN1CCC(N2CCc3cncc4cccc2c34)CC1 [Example 12] | significant intraocular pressure reducing action | –
Cl.OCCCN1CCC(N2CCc3cncc4cccc2c34)CC1 [Example 13] | significant intraocular pressure reducing action | –
Cl.NCCN1CCC(N2CCc3cncc4cccc2c34)CC1 [Example 14] | significant intraocular pressure reducing action | improvement of constriction of respiratory tract (airway resistance value) [2]: significantly improved the constriction of respiratory tract; improvement of constriction of respiratory tract (airway resistance value) [3]: significantly improved the constriction of respiratory tract
Cl.NCCCN1CCC(N2CCc3cncc4cccc2c34)CC1 [Example 15] | significant intraocular pressure reducing action | improvement of constriction of respiratory tract (airway resistance value) [2]: significantly improved the constriction of respiratory tract; improvement of constriction of respiratory tract (airway resistance value) [3]: significantly improved the constriction of respiratory tract
Cl.N#CCN1CCC(N2CCc3cncc4cccc2c34)CC1 [Example 18] | significant intraocular pressure reducing action | –
Cl.N[C@H]1CC[C@H](N2CCc3cncc4cccc2c34)CC1 [Example 21] | significant intraocular pressure reducing action | –
Cl.OCCN[C@H]1CC[C@H](N2CCc3cncc4cccc2c34)CC1 [Example 22] | significant intraocular pressure reducing action | –
Cl.N[C@H]1CC[C@@H](N2CCc3cncc4cccc2c34)CC1 [Example 31] | significant intraocular pressure reducing action | –
CC(=O)NCCCN1CCC(N2CCc3cncc4cccc2c34)CC1 [Example 47] | significant intraocular pressure reducing action | –
CN1CCC(N2CCc3cncc4cccc2c34)CC1 [Example 52] | significant intraocular pressure reducing action | –
CNCCN1CCC(N2CCc3cncc4cccc2c34)CC1 [Example 57] | significant intraocular pressure reducing action | –
Clc1ncc2c3c(cccc13)N(C1CCNCC1)CC2 [Example 61, 6-Chloro-1-(piperidin-4-yl)-2,3-dihydro-1H-1,5-diazaphenalene] | – | IC50 [4]: ≤ 40 µM
Cl.Oc1ncc2c3c(cccc13)N(C1CCNCC1)CC2 [Example 62] | significant intraocular pressure reducing action | –
Cl.OCCN1CCC(N2CCc3cnc(O)c4cccc2c34)CC1 [Example 63] | significant intraocular pressure reducing action | –
Cl.OCCCN1CCC(N2CCc3cnc(O)c4cccc2c34)CC1 [Example 64] | significant intraocular pressure reducing action | –
CC(=O)NCCN1CCC(N2CCc3cnc(O)c4cccc2c34)CC1 [Example 67] | significant intraocular pressure reducing action | –
CCC(=O)NCCN1CCC(N2CCc3cnc(O)c4cccc2c34)CC1 [Example 68] | significant intraocular pressure reducing action | –
CC(=O)NCCCN1CCC(N2CCc3cnc(O)c4cccc2c34)CC1 [Example 72] | significant intraocular pressure reducing action | –
CCC(=O)NCCCN1CCC(N2CCc3cnc(O)c4cccc2c34)CC1 [Example 73] | significant intraocular pressure reducing action | –
CC(C)(C)C(=O)NCCCN1CCC(N2CCc3cnc(O)c4cccc2c34)CC1 [Example 76] | significant intraocular pressure reducing action | –
N[C@H]1CC[C@H](N2CCc3cnc(O)c4cccc2c34)CC1 [Example 77] | significant intraocular pressure reducing action | –
Cl.OCCN[C@H]1CC[C@H](N2CCc3cnc(O)c4cccc2c34)CC1 [Example 78] | significant intraocular pressure reducing action | –
Cl.OCCCN[C@H]1CC[C@H](N2CCc3cnc(O)c4cccc2c34)CC1 [Example 79] | significant intraocular pressure reducing action | –
CC(=O)NCCN[C@H]1CC[C@H](N2CCc3cnc(O)c4cccc2c34)CC1.Cl [Example 82] | significant intraocular pressure reducing action | –
CCC(=O)NCCN[C@H]1CC[C@H](N2CCc3cnc(O)c4cccc2c34)CC1.Cl [Example 83] | significant intraocular pressure reducing action | –
CCCC(=O)NCCN[C@H]1CC[C@H](N2CCc3cnc(O)c4cccc2c34)CC1.Cl [Example 84] | significant intraocular pressure reducing action | –
CC(=O)NCCCN[C@H]1CC[C@H](N2CCc3cnc(O)c4cccc2c34)CC1.Cl [Example 87] | significant intraocular pressure reducing action | –
CCC(=O)NCCCN[C@H]1CC[C@H](N2CCc3cnc(O)c4cccc2c34)CC1.Cl [Example 88] | significant intraocular pressure reducing action | –
